According to patent publication US9265795B2, “Cellular compositions for use in therapy” (RENEURON LIMITED, priority 2008, dated 2016):

Test system: neural stem cell line, CTX0E03
Assay: Hypothermic / ambient shelf-life viability studies (trypan blue exclusion)
Format: cell-based, human
Details: in saline solution at ambient temperature
Method: Cultures of cells were expanded in T-flasks until 70 to 90% confluent. The spent medium was aspirated and then the cell monolayer washed with HBSS without magnesium or calcium ions (Invitrogen). The wash was aspirated and then the cells dissociated with recombinant bovine trypsin (Lonza TrypZean/EDTA) for 5 minutes at 37° C. The dissociated cell suspension was mixed with a trypsin inhibitor solution (0.55 mg/ml soybean trypsin inhibitor [Sigma], 1% HSA [Grifols], 25 U/ml benzon nuclease [VWR] in DMEM:F12 [Invitrogen]) and centrifuged for 5 minutes at ˜500×g. The supernatant was aspirated and the cell pellet washed in 50% HypoThermosol®-FRS (BioLife Solutions, Inc) in DMEM:F12 followed by centrifugation at ˜500×g for 5 minutes. The cell pellet was then suspended in HypoThermosol®-FRS at a concentration of 40,000 to 60,000 cells/μl. […]
Shelf-life studies have assessed the viability of the therapeutic and commercially manufactured neural stem cell line, CTX0E03 (Pollock et al., 2006), formulated in saline or using the method described in this invention using HTS-FRS. […]
Samples of cells were mixed 1:1 with 0.4% Trypan blue (Sigma) and loaded onto a haemocytometer. […] The viability and concentration of the sample is determined by counting the cells within a grid of the haemocytometer using 10× objective phase-contrast microscopy.

Cc1c(C)c2c(c(C)c1O)CCC(C)(C(=O)O)O2 (stereo not shown) [Trolox]
time neural stem cells are preserved: 2 days
